The text below walks through data of PMC6631792, “In Vitro and In Vivo Anti-Breast Cancer Activities of Some Newly Synthesized 5-(thiophen-2-yl)thieno-[2,3-d]pyrimidin-4-one Candidates” (Molecules, 2019).

Read-outs that look alike come from different tables or passages of the source.

Series [1] in a line: Average animal weight in MCF-7 mouse xenograft model. Type of series: in vivo. To be noted: nude mice with MCF-7 xenograft, i.p.; for Average Weight of Animals in Grams after Days 0: day 0; for Average Weight of Animals in Grams after Days 2: day 2; for Average Weight of Animals in Grams after Days 4: day 4; for Average Weight of Animals in Grams after Days 6: day 6; for Average Weight of Animals in Grams after Days 8: day 8; for Average Weight of Animals in Grams after Days 10: day 10; for Average Weight of Animals in Grams after Days 12: day 12; for Average Weight of Animals in Grams after Days 14: day 14; for Average Weight of Animals in Grams after Days 16: day 16; for Average Weight of Animals in Grams after Days 18: day 18; for Average Weight of Animals in Grams after Days 20: day 20; for Average Weight of Animals in Grams after Days 22: day 22. An excerpt: “In this work, MCF-7 mouse xenograft model was used. The animal protocol was approved by the Institutional Animal Use Ethics and Care Committee of the University of Alabama at Birmingham (50-01-05-08B). Female athymic pathogen-free nude mice (nu/nu, 4–6 weeks) were purchased from Frederick Cancer Research and Development Center (Frederick, MD, USA). To establish MCF-7 human breast cancer xenografts, each of the female nude mice was first implanted with a 60-day (subcutaneously, s.c.) slow release estrogen pellet (SE-121, 1.7 mg […]/pellet; Innovative Research of America, Sarasota, FL, USA). After 24 h, grown cells were harvested, washed twice with serum-free medium, resuspended, and injected subcutaneously (5 million cells/0.2 mL) into the left inguinal area of the mice. During the experiment, animals were checked periodically and the percentages of tumor growth, as well as animal weights, were recorded. Every 48 h, the size of the tumor was recorded by measuring two perpendicular diameters of the tumor and tumor volume was calculated according to Wang et al. [46]”.
“Treated animals and control groups (7–10 mice/group) received different compounds and vehicles, respectively. The tested compounds were dissolved in PEG400:ethanol:saline (57.1:14.3:28.6, v/v/v), and injected intraperitoneal (i.p.) at doses of […], 3 d/wk for 3 weeks. The higher dose (10 µM/kg/d, 3 d/wk) inhibited MCF-7 xenograft tumor growth”.

Another series has as its system MCF-7 cells. As to the kind of experiment: MTT cytotoxic assay on MCF-7 cells. In kind it is cell-based, Human. An excerpt: “Human breast cancer cells (MCF-7) and normal non-tumorigenic MCF-10A cells were used throughout the work. Cells were obtained from ATCC, Gaithersburg, MD, USA. Standard MTT assay was used to explore the possible cytotoxic effects of the synthesized compounds [41, 42]. Medium composition, cultivation conditions and assay performance were exactly the same as our previous work. […] After MTT addition, the absorbance of the dissolved formazan crystals was read at 570 nm. The IC50 values were obtained with linear regression equations using Origin® 6.1 software (Origin Lab Corporation, Northampton, MA, USA)”.

For the compound `Cc1cc(=O)n(C(=O)Cn2cnc3scc(-c4cccs4)c3c2=O)[nH]1` [Compound 12, 3-(2-(3-methyl-5-oxo-2,5-dihydro-1H-pyrazol-1-yl)-2-oxoethyl)-5-(thiophen-2-yl)thieno-[2,3-d]pyrimidin-4(3H)-one], in series [1], the “Average Weight of Animals in Grams after Days 0” value (“Average Weight … after Days 0” for short) came out at 27.4 Grams, the “Average Weight of Animals in Grams after Days 2” value is on record as 27.4 Grams, the “Average Weight of Animals in Grams after Days 4” value (from here on “Average Weight … after Days 4”) is listed as 27.4 Grams and the “Average Weight of Animals in Grams after Days 6” value (from here on “Average Weight … after Days 6”) is given as 27.3 Grams. For the same compound, in series [1], the “Average Weight of Animals in Grams after Days 8” value (from here on “Average Weight … after Days 8”) stood at 27.3 Grams, the “Average Weight of Animals in Grams after Days 10” value (from here on “Average Weight … after Days 10”) was determined as 27.3 Grams, the “Average Weight of Animals in Grams after Days 12” value (shortened to “Average Weight … after Days 12”) came out at 27.2 Grams and the “Average Weight of Animals in Grams after Days 14” value (“Average Weight … after Days 14” below) amounted to 27.2 Grams. In series [1], the “Average Weight of Animals in Grams after Days 16” value (from here on “Average Weight … after Days 16”) was found to be 27.2 Grams, the “Average Weight of Animals in Grams after Days 18” value (shortened to “Average Weight … after Days 18”) was determined as 27.1 Grams, the “Average Weight of Animals in Grams after Days 20” value (“Average Weight … after Days 20” below) is listed as 27.1 Grams and the “Average Weight of Animals in Grams after Days 22” value (from here on “Average Weight … after Days 22”) amounted to 27.1 Grams. This compound displayed a half-maximal inhibitory concentration (IC50) in the series on MCF-7 cells (Homo sapiens, MCF7) of 3.36 ± 0.063 µM.

Regarding `Nc1cc(O)cc(=O)n1NC(=O)Cn1cnc2scc(-c3cccs3)c2c1=O` [Compound 14, N-(6-Amino-4-hydroxy-2-oxopyridin-1(2H)-yl)-2-(4-oxo-5-(thiophen-2-yl)thieno[2,3-d]-pyrimidin-3(4H)-yl)acetamide], in series [1], the “Average Weight … after Days 0” value is 26.5 Grams, the “Average Weight of Animals in Grams after Days 2” value worked out at 26.4 Grams, the “Average Weight … after Days 4” value amounted to 26.3 Grams and the “Average Weight … after Days 6” value worked out at 26.2 Grams. Also, in series [1], the “Average Weight … after Days 8” value is 26.1 Grams, the “Average Weight … after Days 10” value amounted to 25.9 Grams, the “Average Weight … after Days 12” value came to 25.9 Grams and the “Average Weight … after Days 14” value was 25.9 Grams. In series [1], the “Average Weight … after Days 16” value was determined as 25.8 Grams, the “Average Weight … after Days 18” value amounted to 25.8 Grams, the “Average Weight … after Days 20” value is reported as 25.7 Grams and the “Average Weight … after Days 22” value stood at 25.7 Grams. Besides, the IC50 in the series with MCF-7 cells (Homo sapiens, MCF7) amounted to 1.19 ± 0.042 µM.

`N.N.[Cl][Pt][Cl]` [Cisplatin, reference compound] showed a half-inhibitory concentration (IC50) with MCF-7 cells of 13.34 ± 0.11 µM.

As for `COc1cccc(C2SCC(=O)N2NC(=O)Cn2cnc3scc(-c4cccs4)c3c2=O)c1OC` (stereo not drawn) [Compound 8, N-(2-(2,3-Dimethoxyphenyl)-4-oxothiazolidin-3-yl)-2-(4-oxo-5-(thiophen-2-yl)thieno[2,3-d]pyrimidin-3(4H)-yl)acetamide], in series [1], the “Average Weight … after Days 0” value is 25.3 Grams, the “Average Weight of Animals in Grams after Days 2” value was 25.3 Grams, the “Average Weight … after Days 4” value is recorded as 25.2 Grams and the “Average Weight … after Days 6” value is recorded as 25.2 Grams. Also, in series [1], the “Average Weight … after Days 8” value was 25.2 Grams, the “Average Weight … after Days 10” value is 25.1 Grams, the “Average Weight … after Days 12” value is recorded as 25.1 Grams and the “Average Weight … after Days 14” value was 24.8 Grams. For the same compound, in series [1], the “Average Weight … after Days 16” value is reported as 24.7 Grams, the “Average Weight … after Days 18” value was 24.6 Grams, the “Average Weight … after Days 20” value is 24.5 Grams and the “Average Weight … after Days 22” value was determined as 24.2 Grams. This compound also yielded an IC50 in the series with MCF-7 cells (Homo sapiens, MCF7) of 1.26 ± 0.052 µM.

As for `NC1=CC(N)N(NC(=O)Cn2cnc3scc(-c4cccs4)c3c2=O)C=C1` (stereo not drawn) [Compound 15, N-(2,4-Diaminopyridin-1(2H)-yl)-2-(4-oxo-5-(thiophen-2-yl)thieno[2,3-d]-pyrimidin-3(4H)-yl)acetamide], in series [1], the “Average Weight … after Days 0” value is given as 26.1 Grams, the “Average Weight of Animals in Grams after Days 2” value worked out at 26.1 Grams, the “Average Weight … after Days 4” value is recorded as 26.1 Grams and the “Average Weight … after Days 6” value is 25.8 Grams. In series [1], the “Average Weight … after Days 8” value stood at 25.8 Grams, the “Average Weight … after Days 10” value worked out at 25.7 Grams, the “Average Weight … after Days 12” value is listed as 25.7 Grams and the “Average Weight … after Days 14” value turned out to be 25.6 Grams. In addition, in series [1], the “Average Weight … after Days 16” value worked out at 25.6 Grams, the “Average Weight … after Days 18” value was 25.5 Grams, the “Average Weight … after Days 20” value came to 25.5 Grams and the “Average Weight … after Days 22” value turned out to be 25.2 Grams. Half-maximal inhibition with MCF-7 cells (Homo sapiens, MCF7) (IC50) was put at 1.18 ± 0.032 µM.

As for `O=c1oc(Cn2cnc3scc(-c4cccs4)c3c2=O)nc2ccccc12` [Compound 5, 2-((4-oxo-5-(thiophen-2-yl)thieno[2,3-d]pyrimidin-3(4H)-yl)methyl)-4H-benzo[d]-[1,3] oxazin-4-one], in series [1], the “Average Weight … after Days 0” value was determined as 22.9 Grams, the “Average Weight of Animals in Grams after Days 2” value stood at 22.9 Grams, the “Average Weight … after Days 4” value worked out at 22.9 Grams and the “Average Weight … after Days 6” value is listed as 22.8 Grams. In addition, in series [1], the “Average Weight … after Days 8” value is given as 22.8 Grams, the “Average Weight … after Days 10” value is 22.7 Grams, the “Average Weight … after Days 12” value was 22.8 Grams and the “Average Weight … after Days 14” value is on record as 22.7 Grams. Also, in series [1], the “Average Weight … after Days 16” value is reported as 22.9 Grams, the “Average Weight … after Days 18” value was 22.6 Grams, the “Average Weight … after Days 20” value was found to be 22.6 Grams and the “Average Weight … after Days 22” value is 22.5 Grams. In addition, half-maximal inhibition with MCF-7 cells (Homo sapiens, MCF7) (IC50) was put at 4.76 ± 0.087 µM.

`O=C(Cn1cnc2scc(-c3cccs3)c2c1=O)NNC(=S)Nc1ccccc1` [Compound 10, 2-(2-(4-oxo-5-(thiophen-2-yl)thieno[2,3-d]pyrimidin-3(4H)-yl)acetyl)-N-phenylhydrazine-1-carbothioamide]: in series [1], the “Average Weight … after Days 0” value was determined as 24.9 Grams, the “Average Weight of Animals in Grams after Days 2” value is listed as 24.9 Grams, the “Average Weight … after Days 4” value is recorded as 24.9 Grams and the “Average Weight … after Days 6” value came out at 24.9 Grams. Further, in series [1], the “Average Weight … after Days 8” value turned out to be 24.8 Grams, the “Average Weight … after Days 10” value amounted to 24.8 Grams, the “Average Weight … after Days 12” value came to 24.8 Grams and the “Average Weight … after Days 14” value is on record as 24.4 Grams. Also, in series [1], the “Average Weight … after Days 16” value worked out at 24.4 Grams, the “Average Weight … after Days 18” value is given as 24.4 Grams, the “Average Weight … after Days 20” value is 24.4 Grams and the “Average Weight … after Days 22” value stood at 24.4 Grams. Half-maximal inhibition in the series on MCF-7 cells (Homo sapiens, MCF7) (IC50) was put at 3.55 ± 0.065 µM.

For the compound Milaplatin [reference compound], it took 18.43 ± 0.13 µM to reach half-maximal inhibition in the series with MCF-7 cells (IC50).

In the case of `CC(=O)NNC(=O)Cn1cnc2scc(-c3cccs3)c2c1=O` [Compound 13, N′-acetyl-2-(4-oxo-5-(thiophen-2-yl)thieno[2,3-d]pyrimidin-3(4H)-yl)aceto-hydrazide], in series [1], the “Average Weight … after Days 0” value came out at 25.4 Grams, the “Average Weight of Animals in Grams after Days 2” value came to 25.4 Grams, the “Average Weight … after Days 4” value came out at 25.4 Grams and the “Average Weight … after Days 6” value was determined as 25.4 Grams. In addition, in series [1], the “Average Weight … after Days 8” value was 25.4 Grams, the “Average Weight … after Days 10” value is reported as 25.3 Grams, the “Average Weight … after Days 12” value is recorded as 25.3 Grams and the “Average Weight … after Days 14” value came to 25.3 Grams. In addition, in series [1], the “Average Weight … after Days 16” value was 25.3 Grams, the “Average Weight … after Days 18” value is listed as 25.3 Grams, the “Average Weight … after Days 20” value was 25.3 Grams and the “Average Weight … after Days 22” value is 25.3 Grams. Moreover, in the series with MCF-7 cells (Homo sapiens, MCF7), the IC50 was 3.64 ± 0.074 µM.
